Data taken from patent US12514859B2, “Pyrazole pyrimidine derivative and uses thereof” (Yissum Research Development Company of the Hebrew …, priority 2015, dated 2026).

Columns and labels:
IRAK1 [1] = target: T1, IRAK1 (Homo sapiens, UniProt P51617); test: Kd measurements for the interaction with IRAK1; type: binding
T1 construct: RKO cells were incubated for 16 hours at 37° C. with the indicated concentrations of compounds; endogenous in cells; host or cells: RKO cells, stimulated with TNFα

IRAK1 [2] = target: T1, IRAK1; test: IRAK1 inhibition in RKO cells treated with TNFα (Western blot); type: cell-based; details: RKO cells, Western blot; A51 1 μM, A14 2 μM, 16 hours, TNFα 100 units/ml
Method: (§1) Cells were harvested and analyzed by Western blot. Blots were incubated with the following antibodies: Phospho-IRAK1 (Thr209), (A1074, AssayBiothechnology; 1/1,000), Phospho-IKKα/β (Ser176/180) (16A6, Cell Signaling; 1/1,000), IKKα (2682, cell signaling; 1/1,1000), IKK β (2370, cell signaling; 1/1,1000), Phospho-c-Jun (Ser 63) (9261, cell signaling; 1/1,1000), p53 (DO-1&1801 hybridoma mix; dilution of 1:20 of supernatants from each), CKIα (C-19; 1/1,000; Santa Cruz Biotechnology) and phospho-histoneH2AX (S139; 1/1,000; Millipore). Secondary antibodies were HRP-linked goat anti-mouse, goat anti-rabbit and rabbit anti-goat antibodies (all 1/10,000; Jackson). Inhibition of Phospho-IRAK1, Phospho-IKKα/β and Phospho-c-Jun indicate IRAK1 inhibition. p53 stabilization and phosphorylation of H2AX (γH2AX), a marker of DNA damage, indicative of CKIα kinase inhibition. CKIα protein levels serves as a loading control.
as §1, with “IRAK1 Inhibition with compounds of the invention. RKO cells were incubated for 16 hours at 37° C. with the indicated concentrations of compounds of the invention A51 (1 μM) and A14 (2 μM) (FIG. 10). At the indicated time points, RKO were treated with TNFα (100 units/ml). Cells” for “Cells”, “IKKβ” for “IKK β”, “Blots were developed using ECL (GE Healthcare). […] Also shown is” for “Inhibition of Phospho-IRAK1, Phospho-IKKα/β and Phospho-c-Jun indicate IRAK1 inhibition.”

[3] = system: bone marrow cells isolated from CML blast crisis mice; test: Ex vivo inhibitor effects on bone marrow cells from CML blast crisis mice; type: cell-based, mouse; details: 8 hours
Method: Ex vivo inhibitor effects (FIGS. 2A and 13A-E). Freshly isolated BM from AML (13A-E) or CML blast crisis (2A) carrying mice were grown in RPMI supplemented with 15% FCS, L-Glutamine, Pen/Strep, Hepes, Sodium Pyruvate and non-essential amino acids (Biological Industries, Israel). CKI inhibitors (A14, A51, A75 or A86) were dissolved in DMSO and added to the tissue culture medium at the indicated concentrations; control cultures were treated with DMSO only. Several hours following treatment (as indicated in each experiment), cells were harvested and counted manually using a camera and standard inverted light microscope. Dead cells were excluded using Trypan Blue (Sigma). AnnexinV-PE (MBL), 7AAD (Tonbo) and PD-L1 (BioLegend) staining was evaluated by FACS according to manufacturer's recommendation.
FACS analysis. All assays were performed on BD's equipment: FACS caliber, FACS ARIA sorter or LSR II machines. For immunostaining, cells were suspended in a 1% BSA/PBS buffer with […]. Cells were then analyzed by using Annexin V PE Apootosis Detection Kit (eBioscience), 7-AAD (TONBO biosciences) and PE anti-mouse CD274 (B7-H1, PD-L1) antibody (clone 10F.9G2, BioLegend); Assays were performed according to the manufacturer's instruction. Monoclonal antibodies specific for CD16 and CD32 (Miltenyi Biotec) were used for blockade of Fc receptors before staining.

T1 sequence (P51617 whole entry): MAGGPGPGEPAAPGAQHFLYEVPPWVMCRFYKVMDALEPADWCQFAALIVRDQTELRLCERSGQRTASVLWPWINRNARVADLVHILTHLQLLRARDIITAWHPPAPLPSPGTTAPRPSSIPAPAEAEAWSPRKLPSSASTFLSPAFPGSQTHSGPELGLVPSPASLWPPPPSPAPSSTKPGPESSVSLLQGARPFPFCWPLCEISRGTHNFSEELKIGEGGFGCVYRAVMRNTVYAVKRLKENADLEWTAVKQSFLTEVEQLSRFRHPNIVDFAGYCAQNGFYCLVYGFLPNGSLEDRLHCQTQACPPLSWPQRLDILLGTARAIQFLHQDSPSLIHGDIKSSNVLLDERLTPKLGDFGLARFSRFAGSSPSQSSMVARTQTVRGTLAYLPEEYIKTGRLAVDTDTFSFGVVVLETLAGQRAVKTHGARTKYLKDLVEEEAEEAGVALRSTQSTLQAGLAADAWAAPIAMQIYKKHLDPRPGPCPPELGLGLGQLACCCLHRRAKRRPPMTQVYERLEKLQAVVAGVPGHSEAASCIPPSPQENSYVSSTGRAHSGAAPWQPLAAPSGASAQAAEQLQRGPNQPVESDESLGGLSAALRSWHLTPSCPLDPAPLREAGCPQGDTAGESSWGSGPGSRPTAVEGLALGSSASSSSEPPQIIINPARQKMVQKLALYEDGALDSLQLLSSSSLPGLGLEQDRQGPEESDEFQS

Kd (IRAK1 [1]): 11 nM
IRAK1 activation and activation of the IRAK1 target IKK (in words) (IRAK1 [2]): inhibition of IRAK1 activation
SMILES: Cn1ncc(-c2ccnc(N[C@H]3CC[C@H](N)CC3)n2)c1CC1CC1 [Compound A14, (1R, 4R)—N^1-(4-(5-(cyclopropylmethyl)-1-methyl-1H-pyrazol-4-yl)pyrimidin-2-yl)cyclohexane-1,4-diamine]
apoptosis of bone marrow cells (Annexin5+/7AAD−) (in words) ([3]; dose dependent): induces apoptosis
total death (7AAD+) cells (in words) ([3]; dose dependent): increased percentage of total death (7AAD+) cells
leukemic cell number (in words) ([3]; dose response): dramatic reduction of the leukemic cell number
